In patent publication US20230058623A1, “NOVEL HETEROARYL-TRIAZOLE COMPOUNDS AS PESTICIDES” (Bayer Aktiengesellschaft, priority 2019, published 2023):

Experiments:
Assay type in all cases: in vivo
[1] = test system: brown planthopper (Nilaparvata lugens); assay: Nilaparvata lugens spray test; settings: 96 h, after 4 days, rice plants; for mortality at 500 g/ha: application rate 500 g/ha; for mortality at 100 g/ha: application rate 100 g/ha
In short: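 Rice plants sprayed with compound diluted in water containing 1000 ppm emulsifier, then infested with brown planthopper. Mortality (%) scored after 4 days, 100% meaning all insects killed.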

[2] = test system: adult mosquitoes Culex quinquefasciatus strain P00; assay: Culex quinquefasciatus test (CULXFA surface treatment & contact assay); settings: 24 hours after contact, read-out: efficacy (mortality); for mortality at 4 mg/m2: surface concentration 4 mg/m^2, exposure 30 minutes; for mortality at 20 mg/m2: surface concentration 20 mg/m^2, exposure 30 minutes
Method: Culex quinquefasciatus Test (CULXFA Surface Treatment & Contact Assay)
(§1) Solvent: Aceton+2000 ppm rapeseed oil methyl ester (RME)
In order to produce a sufficient, active ingredient containing solution it is necessary to solve the test compound in the solvent-mix (acetone at 2 mg/ml/RME 2 000 ppm). This solution is pipetted onto a glazed tile and after evaporation of the acetone, adult mosquitoes of the species Culex quinquefasciatus strain P00 are placed onto the dried surface. The exposure time is 30 minutes.
(§2) Mortality in percent (%) is determined 24 hours after contact of the insects to the treated surface. 100% mortality means that all tested insects are dead, whereas 0% means that no insect died.

[3] = test system: fall armyworm larvae (Spodoptera frugiperda); assay: Spodoptera frugiperda spray test; settings: 168 h, application rate 100 g/ha, after 7 days, maize leaf sections
In short: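 Maize leaf sections sprayed with compound diluted in water with 1000 ppm emulsifier, then infested with larvae once dry. Mortality (%) scored after 7 days; 100% = all caterpillars killed.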

[4] = test system: adult cat fleas (Ctenocephalides felis); assay: Ctenocephalides felis in-vitro contact test, adult cat flea; settings: application rate 5 μg/cm^2 (=500 g/ha), after 48 hours, read-out: activity (efficacy: fleas dead or moribund)
In short: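 Acetone solutions of compound were coated onto inner walls of glass tubes (900 ppm giving 5 μg/cm^2) and dried; 5-10 adult C. felis were then held 48 h at room temperature. Efficacy = % fleas dead or moribund, judged by inability to escape a 45-50° C heating plate within 5 min.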

[5] = test system: green peach aphid (Myzus persicae); assay: Myzus persicae oral test; settings: 120 h, read-out: activity (mortality)
In short: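 Oral uptake format: water-diluted acetone concentrate of compound is blended into IPL41 medium carrying 33%+15% sugar and offered under a parafilm membrane. Percentage of dead insects is recorded after 5 days.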

[6] = test system: adult mosquitoes Anopheles funestus strain FUMOZ-R; assay: Anopheles funestus test (ANPHFU surface treatment & contact assay); settings: 24 hours after contact, read-out: efficacy (mortality); for mortality at 4 mg/m2: surface concentration 4 mg/m^2, exposure 30 minutes; for mortality at 20 mg/m2: surface concentration 20 mg/m^2, exposure 30 minutes
Method: Anopheles funestus Test (ANPHFU Surface Treatment & Contact Assay)
as §1
In order to produce a sufficient, active ingredient containing solution it is necessary to solve the test compound in the solvent-mix (acetone at 2 mg/ml/RME 2000 ppm). This solution is pipetted onto a glazed tile and after evaporation of the acetone, adult mosquitoes of the species Anopheles funestus strain FUMOZ-R (Hunt et al., Med. Vet. Entomol. 2005 September; 19(3): 271-275) are placed onto the dried surface. The exposure time is 30 minutes.
as §2

[7] = test system: adult engorged female ticks (Rhipicephalus microplus); assay: Rhipicephalus (Boophilus) microplus injection test; settings: 168 h, application rate 4 μg/tick, egg deposition after 7 days, read-out: activity (efficacy: infertile eggs)
In short: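 Five adult engorged female ticks injected into the abdomen with 1 μL compound solution in DMSO, then held in a climate chamber. Fertile egg deposition assessed after 7 days, unclear eggs kept until hatching (about 42 days); efficacy 100% = all eggs infertile, 0% = all fertile.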

[8] = test system: cattle ticks (Rhipicephalus microplus) strain Parkhurst, SP-resistant; assay: Rhipicephalus (Boophilus) microplus dip test; settings: 168 h, application rate 100 ppm, egg deposition after 7 days, read-out: activity (efficacy: infertile eggs)
Method: Rhipicephalus (Boophilus) microplus—Dip Test
Test animal: cattle ticks (Rhipicephalus microplus) strain Parkhurst, SP-resistant
Solvent: dimethyl sulfoxide
To produce a suitable preparation of active compound, 10 mg of active compound are dissolved in 0.5 mL solvent, and the concentrate is diluted with water to the desired concentration.
This compound solution is pipetted into tubes. 8-10 engorged, adult, female cattle ticks (Rhipicephalus microplus) are placed in perforated tubes. These tubes are immersed in the aqueous compound solution until the ticks are completely moistened. After the liquid has drained off, the ticks are transferred to a filter paper in a plastic tray and stored in a climate chamber.
After 7 days egg deposition of fertile eggs is monitored. Eggs where fertility is not visible are stored in a climate chamber till hatching after about 42 days. An efficacy of 100% means all eggs are infertile; 0% means all eggs are fertile.

[9] = test system: two spotted spidermite (Tetranychus urticae); assay: Tetranychus urticae spray test OP-resistant; settings: foliar, 144 h, application rate 100 g/ha, after 6 days, French bean leaf disks
Method: Tetranychus urticae—Spray Test OP-Resistant
To produce a suitable preparation of active compound, 1 part by weight of active compound is mixed with the stated amount of solvents and is diluted with water, containing an emulsifier concentration of 1000 ppm, to the desired concentration. Further test concentrations are prepared by dilution with emulsifier containing water.
French bean (Phaseolus vulgaris) leaf disks infected with all instars of the two spotted spidermite (Tetranychus urticae) are sprayed with a preparation of the active ingredient of the desired concentration.
After 6 days mortality in % is determined. 100% means all spider mites have been killed and 0% means none of the spider mites have been killed.

Row | Compound | mortality at 500 g/ha [1] [%] | mortality at 4 mg/m2 [2] [%] | mortality at 20 mg/m2 [2] [%] | mortality at 100 g/ha [3] [%] | pest or weed control at 5 µg/cm2 [4] [%] | mortality at 4 ppm [5] [%] | mortality at 4 mg/m2 [6] [%] | mortality at 20 mg/m2 [6] [%] | pest or weed control at 0.004 mg [7] [%] | mortality at 100 g/ha [1] [%] | pest or weed control at 100 ppm [8] [%] | mortality at 100 g/ha [9] [%]
1 | C[C@H](NC(=O)c1cc(C(F)(F)F)cc(C(F)(F)F)c1)c1ncnn1-c1ccc(C(=O)N2CCS(=O)(=O)CC2)cn1 [Example I-75] | 100 | 80 to 100 | 80 to 100 | 100 | 100 | 100 | 80 to 100 | 80 to 100 |  |  |  | 
2 | C[C@@H]1CN(C(=O)c2ccc(-n3ncnc3[C@H](C)NC(=O)c3cc(C(F)(F)F)cc(C(F)(F)F)c3)nc2)CCO1 [Example I-69] |  |  | 80 to 100 | 100 | 100 | 100 | 80 to 100 | 80 to 100 |  |  |  | 
3 | C[C@H](NC(=O)c1cc(C(F)(F)F)cc(C(F)(F)F)c1)c1ncnn1-c1ccc(C(=O)N2C[C@H](C)O[C@@H](C)C2)cn1 [Example I-94] |  |  |  | 100 | 100 |  |  |  | 100 | 90 | 100 | 
4 | COC1CCCN(C(=O)c2ccc(-n3ncnc3[C@H](C)NC(=O)c3cc(C(F)(F)F)cc(C(F)(F)F)c3)nc2)C1 (stereo partly drawn) [Example I-8] |  |  |  | 100 | 100 | 100 |  |  | 100 | 90 | 80 | 
5 | C[C@H](NC(=O)c1cc(Cl)cc(C(F)(F)F)c1)c1ncnn1-c1ccc(C(=O)N2CCSCC2)cn1 [Example I-36] |  |  |  |  | 100 | 100 | 80 to 100 | 80 to 100 | 100 | 100 |  | 
6 | COC1CN(C(=O)c2ccc(-n3ncnc3[C@H](C)NC(=O)c3cc(C(F)(F)F)cc(C(F)(F)F)c3)nc2)C1 [Example I-15] |  |  |  | 100 | 100 | 100 |  |  | 100 |  | 100 | 
7 | C[C@@H]1CN(C(=O)c2ccc(-n3ncnc3[C@H](C)NC(=O)c3cc(C(F)(F)F)cc(C(F)(F)F)c3)nc2)C[C@H](C)O1 [Example I-50] |  |  | 80 to 100 | 100 | 100 | 100 | 80 to 100 | 80 to 100 | 100 | 90 | 100 | 
8 | C[C@@H]1CN(C(=O)c2ccc(-n3ncnc3[C@H](C)NC(=O)c3cc(Cl)cc(C(F)(F)F)c3)nc2)C[C@H](C)O1 [Example I-31] |  |  |  | 100 | 100 | 100 |  |  | 100 |  |  | 
9 | Cc1nc([C@H](C)NC(=O)c2cc(C(F)(F)F)cc(C(F)(F)F)c2)n(-c2ccc(C(=O)N3C[C@@H](C)O[C@@H](C)C3)cn2)n1 [Example I-45] |  |  |  | 100 | 100 | 100 |  |  | 100 |  | 80 | 
10 | C[C@H](NC(=O)c1cc(C(F)(F)F)cc(C(F)(F)F)c1)c1ncnn1-c1ccc(C(=O)N2CCCC2)cn1 [Example I-11] |  |  |  | 100 | 100 | 100 |  |  | 100 |  |  | 100
11 | C[C@H](NC(=O)c1cc(Cl)cc(C(F)(F)F)c1)c1ncnn1-c1ccc(C(=O)N2CCS(=O)(=O)CC2)cn1 [Example I-35] |  |  |  |  | 100 | 100 |  | 80 to 100 | 100 | 100 |  | 
12 | Cc1nc([C@H](C)NC(=O)c2cc(C(F)(F)F)cc(C(F)(F)F)c2)n(-c2ncc(C(=O)N3CCOCC3)s2)n1 [Example I-4] |  |  |  | 100 | 80 | 100 |  |  | 100 |  |  | 
13 | C[C@@H]1CN(C(=O)c2ccc(-n3ncnc3[C@H](C)NC(=O)c3cc(OC(F)(F)F)cc(C4CC4)c3)nc2)C[C@H](C)O1 [Example I-114] |  |  |  | 100 | 100 | 100 |  |  | 100 |  | 100 | 
14 | C[C@@H]1CN(C(=O)c2ccc(-n3ncnc3[C@H](C)NC(=O)c3cc(C(F)(F)F)cc(C(F)(F)F)c3)nc2)C[C@@H](C)O1 [Example I-46] |  |  |  | 100 | 100 | 100 |  |  | 100 |  | 100 | 
15 | Cc1nc([C@H](C)NC(=O)c2cc(C(F)(F)F)cc(C(F)(F)F)c2)n(-c2ccc(C(=O)N3CCS(=O)(=O)CC3)cn2)n1 [Example I-76] | 100 | 80 to 100 | 80 to 100 | 100 | 100 | 100 | 80 to 100 | 80 to 100 |  |  |  | 
16 | Cc1nc([C@H](C)NC(=O)c2cc(Cl)cc(C(F)(F)F)c2)n(-c2ccc(C(=O)N3CC(C)OC(C)C3)cn2)n1 (stereo partly drawn) [Example I-29] |  |  |  | 83 | 100 | 100 |  |  | 100 |  |  | 
